Literature values in patent US20250319149A1, “COMPOSITIONS FOR TREATING IMBALANCES OF THE GUT MICROBIOTA” (Provexis Natural Products Limited, priority 2022, published 2025).

Test system: TMAO-induced atherosclerosis
Conditions: mice; Chen et al.

Compound: Oc1ccc(C=Cc2cc(O)cc(O)c2)cc1 [resveratrol]
- TMAO-induced atherosclerosis: attenuated
